Data set [1] deals with co-culture of keratinocytes and melanocytes. Nature of the data set: Cytotoxicity on a co-culture. In kind it is cell-based. The protocol:
(§1) The modulatory effect of the compounds on constitutive melanogenesis was measured according to the method described in FR-A-2,734,825 and also in the article by Schmidt et al., Anal. Biochem., 235(2), 1996, pp. 113-118. This test is performed on a co-culture of keratinocytes and melanocytes.

Data set [2] shares this test system. Nature of the data set: Activity on constitutive melanogenesis (inhibition of melanin synthesis; thiouracil/leucine incorporation ratio). It counts as cell-based. The settings on record: for Maximum Activity: inhibitory activity on melanin synthesis, ratio of incorporation of thiouracil to leucine, relative to 100% of the control without test compound. Here is the method: as §1
For the test compounds, the inhibitory activity on melanin synthesis was determined, by estimating the ratio of incorporation of thiouracil to the incorporation of leucine, relative to 100% of the control (the control corresponds to the test performed without test compound).

For `CC1(C(N)=O)CSSC1` [Compound 2, 4-methyl-1,2-dithiolane-4-carboxamide], the “Cytotoxicity on a co-culture” value in data set [1] is 100 µM. In addition, the “depigmenting action compared with arbutin and kojic acid” value in data set [2] (conclusion in words from the table of Example 25) is “greater depigmenting action than arbutin and kojic acid”. Also, in data set [2], the “Maximum Activity” value was −76%.
For the molecule `O=c1cc(CO)occ1O` [Kojic acid], in data set [1], the “Cytotoxicity on a co-culture” value amounted to 100 µM. Further, the “Maximum Activity” value in data set [2] was −30%.
On to `OC[C@H]1O[C@@H](Oc2ccc(O)cc2)[C@H](O)[C@@H](O)[C@@H]1O` [Arbutin], for which the “Cytotoxicity on a co-culture” value in data set [1] is on record as “Non-cytotoxic”. For the same molecule, the “Maximum Activity” value in data set [2] was −44%.
